How the values were obtained:
[1] = Cytotoxicity counterscreen, CellTiter Glo, 72 hr; format: cell-based, human; conditions: human, bladder carcinoma 5637 cells (ATCC HTB-9), five probe analogues
Experimental: (§1) B. Counterscreen: Cytotoxicity Screening for Potential Inhibitors of Bacterial Capsule Biogenesis.
(§2) Purpose: This cell-based assay measures the cytotoxicity of compounds in bladder carcinoma 5637 cells using luminescent cell viability assay readout.
(§3) Cytotoxicity assay: The cytotoxicity assay was performed as described in Section 6: Appendix. Hit cytotoxicity and the 50% toxic concentration (CC50) was determined and compared to the IC50 to calculate the selectivity index.
(§4) Assay Description: Cytotoxicity: Dose response testing (dose range=300-0.58 μM) established the hit cytotoxicity data. Compounds were plated in 384-well microplates in a stacked dose response format using the same doses used in the efficacy dose response. Bladder carcinoma 5637 cells were added to the compounds, and 72 hr later cell viability was measured using CellTiter Glo (38). Hit cytotoxicity and the 50% toxic concentration (TC50) was determined and compared to the IC50 to calculate the therapeutic index. Test compounds are serially diluted in a plate to plate matrix or stacked plate matrix. All 320 compounds in a source plate are diluted together resulting in a 10 point dose response dilution series. It is visualized as a serial dilution series proceeding vertically through a stack of plates with the high dose plate on top and the low dose plate on the bottom.
(§5) Control Drug: Hyamine was used as a positive cytotoxic control. All wells contained 0.5% DMSO.
(§6) Preparation of Bladder carcinoma 5637 cells: Cells are harvested and resuspended to 80,000 cells per ml in Complete DMEM/F12®.
(§7) Endpoint Read: Following the three day incubation period, the assay plates were equilibrated to room temperature for 30 min and an equal volume (30 μL) of Cell Titer-Glo® reagent (Promega Inc.) is added to each well using a WellMate™ (Matrix, Hudson, N.H.) and plates are incubated for an additional 10 min at room temperature. At the end of the incubation, luminescence is measured using a Perkin Elmer Envision™ multi-label reader (PerkinElmer, Wellesley, Mass.) with an integration time of 0.1 s.
(§8) Cytotoxicity. Testing was performed essentially as previously described. Concentration-response testing was performed over a range 0.58-300 μM in a […] well plate format. Bladder carcinoma 5637 cells (ATCC HTB-9) were added to the compounds, and 72 hrs later cell viability was measured using CellTiter Glo (Promega). The 50% toxic concentration (TC50) was determined and compared to the IC50 to calculate the therapeutic index. Hyamine was used as a positive cytotoxic control. All wells contained 0.5% DMSO.

E. coli K1 strain UTI89 [2] = test: Secondary assay 2: T7 phage-mediated lysis assay; format: cell-based, Escherichia coli; conditions: read-out: T7 phage IC50
Source text: D. Secondary Assay 2: Screening for Inhibitors of Bacterial Capsule Biogenesis—T7 Lysis Inhibition
Purpose: This secondary assay measures the compound mechanistic specificity for inhibition of bacterial capsule formation and excludes inhibitors of phage replication using a different bacteriophage (T7). In this assay, an increase in phage-induced lysis correlates to a decrease in capsule formation.
Purpose: This secondary assay measures the compound mechanistic specificity for inhibition of bacterial capsule formation using a different bacterial phage (T7). In this assay, an increase in phage-induced lysis correlates to a decrease in capsule formation.
Assay Description: T7 phage-mediated lysis assay: This assay determined if the mechanism of action of the compound is inhibition of phage infectivity or replication. The T7 phage has a nearly identical genome to K1F, without encoding an endosialidase. Its cycle of replication is similar to that of K1F as well. However, T7 entry into E. coli is inhibited by K capsules. This secondary assay was conducted in the 96 well plate format. […] Compounds were added in quadruplicate to plates in a concentration dependent manner in the range of 100-0.39 μM, followed by addition of 100 μL of bacterial culture. 1% DMSO (final well concentration) was included. The plates were tape sealed and shaken vigorously for 1.5 hr. An initial OD600 reading was measured to identify compounds that cause growth retardation or bacterial killing in the absence of phage. Next, T7 phage (5 μL) was added to all of the test wells. The plates were resealed and shaken vigorously at 37° C., and measurements of OD600 for phage-mediated lysis were taken after 3 hr. True inhibitors of capsule yielded bacteria that were susceptible to T7 phage and lysed within 2 hr of the addition of phage. […] The positive control drug C7 (100 μM final well concentration) was used in this screen.
T7 phage counter assay. This secondary assay was performed as previously described and was used to distinguish compounds with phage inhibitory effects from true polysaccharide capsule inhibitors. […] Thus, the presence of a capsule inhibits T7-mediated lysis. In this assay, an increase in phage-induced lysis correlates to a decrease in capsule formation. True inhibitors of capsule yielded bacteria that were susceptible to T7 phage and lysed within 2 hr of the addition of phage. […] The positive control molecule C7 (100 μM final well concentration) was used in this screen.

E. coli K1 strain UTI89 [3] = test: microbe, parasite or virus in culture
Source text: The ability of the […] to bind to bacterial capsule, infect, and lyse E. coli UT189 was used as the primary assay to identify the effects of screened compounds on bacterial capsule formation. The phenotypic end-point assay measured the fluorescence generated by cellular processing of Alamar Blue as a direct indicator of cell viability. A total of […] compounds were screened using the primary assay. […] Hits were further evaluated using […] secondary assays for alternative measurement of compound-induced reduction in bacterial capsule formation (secondary assays 1 and 2) and specificity (secondary assays 3 and 4). Confirmed actives with an SI>5 were further investigated and subjected to chemical optimization, followed by secondary assay evaluation. Secondary assays more closely characterized the ability of the compounds to reduce bacterial capsule formation and can be used to examine the mechanism of action of the compounds. The combination of primary assay (to measure capsule reduction), counter assay (for general eukaryotic cell toxicity) and secondary assay (to measure reduction in capsule formation and specificity) were combined to allow a determination of probe efficacy, selectivity, and specificity.
A. Primary Assay: Screening for Inhibitors of Bacterial Capsule Biogenesis.
Primary assay: An end-point assay to measure the amount of K1 phage-induced bacterial cell lysis was employed to determine the compound effect on capsule biogenesis. K1 bacteriophage specifically binds the bacterial capsule during the initial stages of infection. Bacteria without capsule cannot be infected and lysed by the bacteriophage. […] A total of 338,740 compounds were screened at 100 μM in the primary screen Inhibition of phage lysis was calculated relative to the mean of the bacterial (positive) control on each microtiter plate. […] For calculation of S/B/Z value, and CV, the following formulae (in which SD stands for standard deviation) were used: S/B=mean signal/mean background; Z=1-3SD of sample+3SD of control mean of sample−mean of control; % CV=(SD mean signal/mean signal)×100.
IC50 values were calculated using a 4 parameter Levenburg-Marquardt algorithm, with the maximum and minimum locked at 0 and 100 respectively.
Primary assay: The primary assay was conducted in the 1,536 well plate format. Bacterial cultures of E. coli K1 strain UTI89 (cystitis isolate) and isogenic capsule mutant strains (as controls for phage infection) were grown and prepared at the screening center immediately prior to use. Overnight starting cultures of UTI89 were grown at 37° C., and inoculated into 1 liter of LB (starting OD600˜0.03), which was sufficient for screening 40 plates (including ˜10% waste) and ˜40,000 compounds as single points.
Control wells contained UTI89 (wt K1) with 0.5% DMSO as a simulated positive control; UTI89 with 0.5% DMSO and tetracycline for a negative growth control; and media plus vehicle control. 50 mL of LB Broth was inoculated with stock 150 μL E. coli UT189 and grown overnight at 37° C. The next day, cultures were diluted 1:75 in 1 L of LB Broth containing 0.5% DMSO. 3 μL of this culture was added to each plate well, and plates were incubated, inverted, at 37° C. for 2 hr. The K1F bacteriophage stock was diluted 1:8 in LB Broth containing 0.5% DMSO, and 1.5 μL of diluted phage (or media only) was added to the pre-plated test compound wells and appropriate control wells. The plates were centrifuged briefly, and then were incubated, inverted, at 37° C. for an additional 2 hr. Afterward, Alamar Blue reagent (Invitrogen, #DAL1100) was diluted 1:2 with LB broth and 1 μL was added to each plate well.

[4] = tested on: Bladder carcinoma 5637 cells; test: Cytotoxicity counterscreen, CellTiter Glo, 72 hr; format: cell-based, human
Experimental: as §1, §2, §3, §4, §5, §6, §7, §8

[5] = Escherichia coli, five probe analogues
[6] = Escherichia coli, read-out: K1 phage IC50, five probe analogues
[7] = second round of synthetic analogues, n = 2
[8] = read-out: K1 phage IC50, second round of synthetic analogues, n = 3

Row | Structure (SMILES) | IC50 at 72 h [1] [µM] | IC50 (E. coli K1 strain UTI89 [2]; [5]) [µM] | IC50 (E. coli K1 strain UTI89 [3]; [6]) [µM] | Selectivity (E. coli K1 strain UTI89 [3]; five probe analogues) | IC50 [4] [µM] | IC50 (E. coli K1 strain UTI89 [2]; [7]) [µM] | IC50 (E. coli K1 strain UTI89 [3]; [8]) [µM]
1 | CCOc1ccc(-c2cc(NC(=O)c3ccc(Br)s3)c(C(=O)O)s2)cc1 [CID 53470415, 3-(5-Bromothiophene-2-carboxamido)-5-(4-ethoxyphenyl)thiophene-2-carboxylic acid] | 49.7 ± 6.49 | 3.33 | 17 ± 4.49 | 2.92 |  |  | 
2 | O=C(Nc1cc(-c2ccc(C(F)(F)F)cc2)sc1C(=O)O)c1cc2ccccc2o1 [CID 53470417, 3-(Benzofuran-2-carboxamido)-5-(4-(trifluoromethyl)phenyl)thiophene-2-carboxylic acid] | 72.1 | 14.1 | > 100 |  |  |  | 
3 | O=C(O)c1sc(-c2ccc(OCC(F)(F)F)cc2)cc1NC(=O)c1c(F)cccc1F [compound 56643002] |  |  |  |  | 75.2 | < 0.625 | 2.86
4 | O=C(Nc1cc(-c2ccc(OCC(F)(F)F)cc2)sc1C(=O)O)c1ccc(Br)o1 [compound 56643003] |  |  |  |  | 50 | 0.625 | 4.9
5 | CCCc1ccc(-c2cc(NC(=O)c3cc(Br)c(Br)o3)c(C(=O)O)s2)cc1 [compound 56643005] |  |  |  |  | 41 | < 5 | 6.78
6 | CCOc1ccc(-c2cc(NC(=O)c3c(F)cc(F)cc3F)c(C(=O)O)s2)cc1 [compound 56643006] |  |  |  |  | 76.6 | < 5 | 20
7 | CCCCOc1ccc(-c2cc(NC(=O)c3c(F)cccc3F)c(C(=O)O)s2)cc1 [compound 56643007] |  |  |  |  | 42.6 | < 0.625 | < 0.78
8 | O=C(Nc1cc(-c2ccc(OCCCC(F)(F)F)cc2)sc1C(=O)O)c1ccc(Br)o1 [compound 56643008] |  |  |  |  | 38.7 | < 2.5 | 1.78
9 | O=C(Nc1cc(-c2ccc(OCCCC(F)(F)F)cc2)sc1C(=O)O)c1cc(Br)c(Br)o1 [compound 56643009] |  |  |  |  | 251 | < 2.5 | > 100
10 | O=C(O)c1sc(-c2ccc(OCCC(F)(F)F)cc2)cc1NC(=O)c1c(F)cc(F)cc1F [compound 56643010] |  |  |  |  | 63.6 | < 0.625 | 3.11
11 | CCCc1ccc(-c2cc(NC(=O)c3c(F)cc(F)cc3F)c(C(=O)O)s2)cc1 [compound 56643011] |  |  |  |  | 69.9 | 2.5 to 5 | 15.9
12 | O=C(O)c1sc(-c2ccc(OCC(F)(F)F)cc2)cc1NC(=O)c1c(F)cc(F)cc1F [compound 56643012] |  |  |  |  | 161 | 2.5 to 5 | 94.9
13 | CCCc1ccc(-c2cc(NC(=O)c3ccc(Br)o3)c(C(=O)O)s2)cc1 [compound 56643013] |  |  |  |  | 46.4 | < 0.625 | 1.43
14 | O=C(O)c1sc(-c2ccc(OCCCC(F)(F)F)cc2)cc1NC(=O)c1c(F)cc(F)cc1F [compound 56643015] |  |  |  |  | 54.7 | < 1.25 | 5.53
15 | CCCc1ccc(-c2cc(NC(=O)c3c(F)cccc3F)c(C(=O)O)s2)cc1 [compound 56643016] |  |  |  |  | 54.9 | < 0.625 | 2.63
16 | CCOc1ccc(-c2cc(NC(=O)c3c(F)cccc3C(F)(F)F)c(C(=O)O)s2)cc1 [compound 56643017] |  |  |  |  | 62 | < 5 | 52.6
17 | CCCCOc1ccc(-c2cc(NC(=O)c3cc(Br)c(Br)o3)c(C(=O)O)s2)cc1 [compound 56643019] |  |  |  |  | 31.7 | 1.25 to 2.5 | 23.3
18 | O=C(O)c1sc(-c2ccc(OCCC(F)(F)F)cc2)cc1NC(=O)c1c(F)cccc1F [compound 56643020] |  |  |  |  | 68.4 | < 0.0156 | 0.84
19 | O=C(Nc1cc(-c2ccc(OCCC(F)(F)F)cc2)sc1C(=O)O)c1ccc(Br)o1 [compound 56643022] |  |  |  |  | 41.7 | < 0.625 | 0.84
20 | CCCOc1ccc(-c2cc(NC(=O)c3c(F)cc(F)cc3F)c(C(=O)O)s2)cc1 [compound 56643023] |  |  |  |  | 85.6 | < 0.625 | 8.06
21 | O=C(O)c1sc(-c2ccc(OCCCC(F)(F)F)cc2)cc1NC(=O)c1c(F)cccc1F [compound 56643024] |  |  |  |  | 241 | < 2.5 | 10.3
22 | [N-]=[N+]=NCCOc1ccc(-c2cc(NC(=O)c3c(F)cccc3F)c(C(=O)O)s2)cc1 [compound 56643025] |  |  |  |  | 273 | < 0.625 | 17.5

— patent US9688653B2, “Ethoxyphenyl thienyl compounds and methods for the treatment of bacterial infections” (Duke University, priority 2013, dated 2017)
